Experimental findings from patent US20240287048A1, “SUBSTITUTED ACYL SULFONAMIDES FOR TREATING CANCER” (The Broad Institute, Inc., priority 2020, published 2024) are described below.

The target in one test is T1, KAT6A (Homo sapiens, UniProt Q92794).
T1 construct: Recombinant human His-tagged Kat6a protein (amino acids 194-810); His; made in house; host or cells: Baculovirus-infected Sf9 insect cells
The test is described as follows: Kat6a activity assay (TR-FRET, acetylation of biotinylated histone H4 peptide). The test is classed as biochemical. The conditions noted are these: recombinant human His-tagged Kat6a (amino acids 194-810), 60 mins at 22° C., read-out: KAT6A-DPF/HAT domain IC50 [mol/l] (arithmetic mean). An excerpt: Kat6a inhibitory activities of the compounds described in the present invention were quantified using a Fluorescence Resonance Energy Transfer (TR-FRET) assay which measures acetylation of a synthetic, biotinylated Histone-H4-derived peptide by the enzyme.
Recombinant human His-tagged Kat6a protein (amino acids 194-810), was purified in-house from Baculovirus-infected insect cells (Sf9). Histone H4 peptide (amino acids 1-24, […]-VLRD-K(Btn)-amide), which was used as substrate, was synthesized by Biosyntan GmbH, Berlin, Germany. Acetyl Coenzyme A was purchased from Sigma-Aldrich (#A-2056).
Kat6a was incubated for 60 mins at 22° C. in the presence of different concentrations of test substances (0 μM, and within the range 0.01-20 μM) in assay buffer [25 mM Tris/HCl pH 8, 1 mM EGTA, 2.5 mM Glutathion, 0.02% Chicken Albumin, 0.05% Pluronic F127, 25 mM NaCl, 220 nM H4 peptide and 600 nM Acetyl Coenzyme A].
The reaction was stopped by addition of Detection Solution (25 mM HEPES pH 7.5, 0.1% BSA, 22 nM SAXL665 (Cisbio #610SAXLE), 100 μM Anacardic Acid (Enzo #ALX-270-381), 1 nM Anti-Histone H4 (ACETYL K8) Antibody (ABCAM #AB15823) and 0.5 nM Anti-Rabbit IgG Eu (Perkin Elmer #AD0083).
The fluorescence emission at 620 nm and 665 nm after excitation at 330-350 nm was measured in a TR-FRET measuring instrument, for instance a Rubystar or a Pherastar (both from BMG Lab Technologies, Offenburg, Germany) or a Viewlux (Perkin-Elmer). The ratio of the emission at 665 nm and at […] was used as indicator of the amount of acetylated peptide.
The resulting data (ratio) were normalized, taking 0% inhibition as the mean value of control measurements where all reagents were included. In this case 50 nl DMSO were used instead of compounds. […] IC50 values were determined by regression analysis based on a 4 parameter equation (minimum, maximum, ICM, Hill; Y=Max+(Min−Max)/(1+(X/ICso) Hill) using the Screener Software (Genedata).
Background: Time-resolved FRET reads energy transfer from a long-lived donor to a nearby acceptor.

Test [1] deals with ESR1 transcription in MVLN cells. The test is described as follows: Repression of ESR1 transcription, MVLN luciferase reporter assay. The test is classed as cell-based. To be noted: Homo sapiens, luciferase signal after 24 h, read-out: MVLN reporter assay, IC50[M] (arithmetic mean). The source says:
KAT6A controls transcription of the ESR1 gene in breast cancer cells. Compound treatment that interferes with this mechanism was quantified using MVLN cells. These cells constitutively express the ER and are stably transfected with the luciferase (LUC) reporter gene and the corresponding hormone responsive element derived from the 5′-flanking region of the Xenopus Vitellogenin A2 gene (Pons et al., 1990, Demirpense et al., 1993, Joyeux et al., 1993). The repressive effect on ERα transcription activity of a test chemical is directly related to the luciferase measured in the lysate of treated MVLN cells.
Each sample was prepared as duplicate and rim wells were excluded. For luciferase signal determination 100 μl of a 1:1 mixture of Steadylite plus (Perkin Elmer; 6016759) and assay medium was added after 24 h for 15 minutes and measured in Victor X3 (Perkin Elmer). To exclude any effects caused by cell loss during the treatment, cell density was determined using Alamar Blue (Invitrogen; DAL1100). Prior to the luciferase measurement 10 μl Alamar Blue were added to each well and the plates were incubated for 2 h in the incubator. Then fluorescence was measured with Victor X3 (Perkin Elmer) at 530 nm/590 nm.
In general terms: In a reporter assay the amount or activity of a reporter protein is the signal.

Another test has as its system ZR-75-1 cells. Put plainly: Proliferation assay in ZR-75-1 cells. To be noted: Homo sapiens, 144 h, Alamar Blue, read-out: ZR75-1 proliferation assay, EC50[M] (arithmetic mean). Format: cell-based. The source says: (§1) For compound characterization cell survival assays were routinely run in two cell lines. ZR-75-1 is a breast carcinoma cell line containing a focal KAT6A amplification and high KAT6A protein expression. Proliferation of this cell line is inhibited upon treatment with KAT6A inhibitors. As a negative control cell line MDA-MB-436 were used. These cells carry a […] deletion of the KAT6A gene, have a low KAT6A protein expression and are not growth inhibited upon treatment with KAT6A inhibitors.
(§2) For measurements cell lines were plated at the below indicated concentration per […] in 96-well plates in a humidified incubator at 37° C. and 5% CO2.
(§3) ZR-75-1 (ATCC, CRL-1500; breast carcinoma); 3000 cells per well; culture medium: RPMI 1640 (Biochrom #FG 1215) medium containing 2.5% FBS (Biochrom #S0615). LCLC-97TM1 (DSMZ, ACC 388; large cell lung carcinoma); 6000 cells per well; culture medium: RPMI 1640 (Biochrom #FG 1215) medium containing 2.5% FBS (Biochrom #S0615). MDA-MB-436 (CLS, 300278; breast adenocarcinoma); 3000 cells per well; culture medium: DMEM/Ham's F12 (Biochrom #FG 4815) medium containing 2.5% FBS (Biochrom #S0615).
(§4) Each sample was prepared as triplicate and rim wells were excluded. Plates were incubated at 37° C. and 5% CO2 for 144 h. Cell viability was measured by adding 10 μL of Alamar Blue Reagent (Invitrogen #DAL 1100) and plates were incubated for 2 h at 37° C. and 5% CO2. Fluorescence was measured at 590 nm wavelength with a Tecan Spark or Victor X3 MTP-Reader (PerkinElmer).

The subject of another test is MDA-MB-436 cells. The test is described as follows: Proliferation assay in MDA-MB-436 cells (negative control cell line). Format: cell-based. The conditions noted are these: Homo sapiens, 144 h, Alamar Blue, read-out: MDA-MB-436 proliferation assay, EC50[M] (arithmetic mean).
Text: as §1, §2, §3, §4
In general terms: The colour change of resazurin is a common sign of viable cells or microbes.

The subject of a further test is LCLC-97TM1 cells. The test is described as follows: Proliferation assay in LCLC-97TM1 cells. Format: cell-based. The conditions noted are these: Homo sapiens, 144 h, Alamar Blue, read-out: LCLC97TM1 proliferation assay, EC50[M] (arithmetic mean). The method, then: as §2, §3, §4

T1 sequence (Q92794 194-810): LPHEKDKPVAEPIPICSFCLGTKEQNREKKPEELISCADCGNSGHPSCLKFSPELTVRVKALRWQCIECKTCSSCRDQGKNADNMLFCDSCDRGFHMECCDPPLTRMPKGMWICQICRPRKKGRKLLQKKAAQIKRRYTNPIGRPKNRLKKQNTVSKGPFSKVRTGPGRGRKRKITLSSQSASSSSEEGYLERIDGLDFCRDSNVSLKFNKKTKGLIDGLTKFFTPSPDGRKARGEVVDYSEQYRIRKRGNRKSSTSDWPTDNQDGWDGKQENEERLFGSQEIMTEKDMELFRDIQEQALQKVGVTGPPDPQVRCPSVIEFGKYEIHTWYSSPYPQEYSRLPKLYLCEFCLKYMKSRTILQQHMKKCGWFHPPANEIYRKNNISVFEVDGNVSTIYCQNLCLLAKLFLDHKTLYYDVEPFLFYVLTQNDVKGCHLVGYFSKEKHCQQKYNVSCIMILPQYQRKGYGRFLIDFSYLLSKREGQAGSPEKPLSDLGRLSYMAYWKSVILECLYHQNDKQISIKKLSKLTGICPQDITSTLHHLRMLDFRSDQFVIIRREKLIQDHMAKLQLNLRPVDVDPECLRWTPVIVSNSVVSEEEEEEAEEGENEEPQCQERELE

With `Cc1ccc2cccc(S(=O)(=O)NC(=O)c3cc4ccc(C(F)(F)F)cc4o3)c2n1` [Example 19, N-(2-Methylquinoline-8-sulfonyl)-6-(trifluoromethyl)-1-benzofuran-2-carboxamide], the IC50 is 0.729 µM at KAT6A and 3.63e-06 M in test [1]. Moreover, the EC50 in the test on ZR-75-1 cells is 4.94e-06 M; with MDA-MB-436 cells it was over 2e-05 M; with LCLC-97TM1 cells, over 2e-05 M.

As for `CCOc1ccc(C(C)CC)cc1S(=O)(=O)NC(=O)c1cc2c(F)cc(C3CC3)cc2o1` (stereo not drawn) [Example 29, 6-Cyclopropyl-N-(2-ethoxy-5-sec-butyl-phenyl)sulfonyl-4-fluoro-benzofuran-2-carboxamide], the IC50 at KAT6A was 0.00184 µM; in test [1] it was 7.41e-08 M. Moreover, the figures for the EC50 in the test on ZR-75-1 cells, with MDA-MB-436 cells and in the test with LCLC-97TM1 cells were 8.86e-08 M, over 2e-05 M and 2.77e-07 M, respectively.

With `Cc1ccc2cccc(S(=O)(=O)NC(=O)c3cc4c(N(C)C)cc(C5CC5)cc4o3)c2n1` [Example 43, 6-Cyclopropyl-4-(dimethylamino)-N-[(2-methyl-8-quinolyl)sulfonyl]benzofuran-2-carboxamide], the IC50 at KAT6A stood at 0.013 µM; in test [1], 6.92e-06 M. In addition, the EC50 in the test with ZR-75-1 cells was 5.64e-06 M; with MDA-MB-436 cells, over 2e-05 M; with LCLC-97TM1 cells, over 2e-05 M.

As for `CCOc1ccccc1S(=O)(=O)NC(=O)c1cc2c(N(C)C)cc(C3CC3)cc2o1` [Example 45, 6-Cyclopropyl-4-(dimethylamino)-N-(2-ethoxyphenyl)sulfonyl-benzofuran-2-carboxamide], the figures for the IC50 (at KAT6A; in test [1]) were 0.0799 µM and 1.68e-05 M, respectively. Besides, the EC50 in the test with ZR-75-1 cells, with MDA-MB-436 cells and in the test with LCLC-97TM1 cells was over 2e-05 M throughout.

Regarding `O=C(NS(=O)(=O)c1ccccc1-c1ccccc1)c1cc2ccc(-c3ccncc3)cc2o1` [Example 20, N-([1,1′-Biphenyl]-2-sulfonyl)-6-(pyridin-4-yl)-1-benzofuran-2-carboxamide], the IC50 at KAT6A was over 20 µM. The EC50 was 3.49e-06 M in the test with ZR-75-1 cells and over 2e-05 M in the test with MDA-MB-436 cells.

`O=C(NS(=O)(=O)c1ccccc1-c1ccccc1)c1cc2ccc(-c3cccnc3)cc2o1` [Example 4, N-([1,1′-biphenyl]-2-sulfonyl)-6-(pyridin-3-yl)-1-benzofuran-2-carboxamide]: the IC50 stood at 15.2 µM on KAT6A and 1.98e-05 M in test [1]. Further, the EC50 with ZR-75-1 cells, in the test with MDA-MB-436 cells and with LCLC-97TM1 cells was over 2e-05 M in each case.

Consider `O=C(NS(=O)(=O)c1ccccc1)c1cc2c(F)cc(C3CC3)cc2o1` [Example 39, N-(Benzenesulfonyl)-6-cyclopropyl-4-fluoro-benzofuran-2-carboxamide], for which the IC50 on KAT6A was 0.0707 µM; in test [1], 4.57e-06 M. Also, the results for the EC50 with ZR-75-1 cells, in the test with MDA-MB-436 cells and in the test with LCLC-97TM1 cells were 3.21e-06 M, over 2e-05 M and over 2e-05 M, respectively.

Consider `Cc1ccc2c(C)c(C(=O)NS(=O)(=O)c3ccccc3-c3ccccc3)oc2c1` [Example 14, N-([1,1′-biphenyl]-2-sulfonyl)-3,6-dimethyl-1-benzofuran-2-carboxamide], for which the results for the IC50 (on KAT6A; in test [1]) were 0.459 µM and 4.11e-06 M, respectively. Moreover, the EC50 was 8.7e-06 M in the test with ZR-75-1 cells, over 2e-05 M in the test with MDA-MB-436 cells and 9.97e-06 M in the test with LCLC-97TM1 cells.

For `CCOc1ccccc1S(=O)(=O)NC(=O)c1cc2c(C(F)(F)F)cc(C3CC3)cc2o1` [Example 51, 6-Cyclopropyl-N-(2-ethoxyphenyl)sulfonyl-4-(trifluoromethyl)benzofuran-2-carboxamide], the IC50 on KAT6A is 0.0256 µM; in test [1], 2.98e-06 M. Moreover, the EC50 in the test on ZR-75-1 cells was 9.14e-06 M.

As for `CC(C)c1ccc2cc(C(=O)NS(=O)(=O)c3ccc(Cl)cc3Cl)oc2c1` [Example 57, N-(2,4-Dichlorobenzenesulfonyl)-6-(propan-2-yl)-1-benzofuran-2-carboxamide], the IC50 in test [1] turned out to be 1.21e-05 M. The EC50 with ZR-75-1 cells and with MDA-MB-436 cells was over 2e-05 M each time.

Consider `C=C(C)c1ccc2cc(C(=O)NS(=O)(=O)c3ccccc3-c3ccccc3)oc2c1` [Example 23, N-([1,1′-biphenyl]-2-sulfonyl)-6-(prop-1-en-2-yl)-1-benzofuran-2-carboxamide], for which the EC50 was 1.15e-06 M in the test with ZR-75-1 cells and over 2e-05 M in the test with MDA-MB-436 cells.

With `N#Cc1ccc2cc(C(=O)NS(=O)(=O)c3ccccc3-c3ccccc3)oc2c1` [Example 3, N-([1,1′-biphenyl]-2-sulfonyl)-6-cyano-1-benzofuran-2-carboxamide], the IC50 at KAT6A was over 20 µM. Also, the EC50 in the test with ZR-75-1 cells and with MDA-MB-436 cells was over 2e-05 M throughout.

With `CN(C)C(=O)c1ccc2cc(C(=O)NS(=O)(=O)c3ccccc3-c3ccccc3)oc2c1` [Example 8, N^2-([1,1′-biphenyl]-2-sulfonyl)-N^6,N^6-dimethyl-1-benzofuran-2,6-dicarboxamide], the IC50 at KAT6A is 17.3 µM; in test [1], over 2e-05 M. In addition, the EC50 in the test with ZR-75-1 cells and with MDA-MB-436 cells was over 2e-05 M throughout.

As for `O=C(O)c1ccc2cc(C(=O)NS(=O)(=O)c3ccccc3-c3ccccc3)oc2c1` [Example 5, 2-[([1,1′-biphenyl]-2-sulfonyl)carbamoyl]-1-benzofuran-6-carboxylic acid], the IC50 on KAT6A was 5.75 µM; in test [1], over 2e-05 M. Further, the EC50 with ZR-75-1 cells and in the test on MDA-MB-436 cells was over 2e-05 M throughout.

Take `O=C(NS(=O)(=O)c1ccccc1-c1ccccc1)c1cc2c(C(F)(F)F)cc(C3CC3)cc2o1` [Example 53, 6-Cyclopropyl-N-(2-phenylphenyl)sulfonyl-4-(trifluoromethyl)benzofuran-2-carboxamide]: the IC50 on KAT6A came out at 0.043 µM; in test [1] it was 6.16e-06 M. Further, the EC50 in the test on ZR-75-1 cells was over 2e-05 M.

`O=C(NS(=O)(=O)c1ccccc1)c1cc2c(C(F)(F)F)cc(C3CC3)cc2o1` [Example 52, N-(Benzenesulfonyl)-6-cyclopropyl-4-(trifluoromethyl)benzofuran-2-carboxamide]: the IC50 at KAT6A was determined as 0.138 µM; in test [1], 1.88e-05 M. Further, in the test with ZR-75-1 cells, the EC50 turned out to be 7.32e-06 M.
